Results reported in PMC8198714, “New Coumarin Derivatives as Cholinergic and Cannabinoid System Modulators” (Molecules, 2021).
Like-named read-outs stand apart in the source and are kept apart here.

Tests used:
[1] = target: T1, FAAH in rat brain membranes (Rattus norvegicus, UniProt P97612); conditions: read-out: IC50 FAAH with 20 min Pre-incubation; cited from earlier work
T1 sequence (P97612 1-579): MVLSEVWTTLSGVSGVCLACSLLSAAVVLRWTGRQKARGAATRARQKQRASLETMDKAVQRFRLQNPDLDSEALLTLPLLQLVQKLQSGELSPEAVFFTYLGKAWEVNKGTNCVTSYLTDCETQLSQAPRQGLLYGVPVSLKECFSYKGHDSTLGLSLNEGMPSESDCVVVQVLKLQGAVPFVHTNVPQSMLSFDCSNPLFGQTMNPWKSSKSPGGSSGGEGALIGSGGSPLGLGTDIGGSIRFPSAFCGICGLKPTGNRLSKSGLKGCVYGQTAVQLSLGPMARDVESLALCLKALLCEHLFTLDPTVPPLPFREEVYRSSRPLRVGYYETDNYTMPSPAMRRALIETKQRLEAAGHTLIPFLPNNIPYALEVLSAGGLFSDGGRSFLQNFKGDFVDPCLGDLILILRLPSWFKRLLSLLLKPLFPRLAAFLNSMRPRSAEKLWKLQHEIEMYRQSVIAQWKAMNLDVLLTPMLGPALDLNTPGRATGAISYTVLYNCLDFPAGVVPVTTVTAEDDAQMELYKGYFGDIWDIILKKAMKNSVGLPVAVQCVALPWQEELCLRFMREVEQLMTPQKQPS

Aβ42 self-aggregation = target: T2, Aβ42 self-aggregation (Homo sapiens, UniProt P05067); assay: Inhibition of Aβ42 self-aggregation, thioflavin T fluorescence; format: biochemical; conditions: read-out: % Inhibition Aβ42 self-aggregation (±SEM)
T2 construct: pretreated Aβ42 samples (Bachem AG, Bubendorf, Switzerland); purchased Bachem AG, Bubendorf, Switzerland
T2 sequence (P05067 672-713 limits assumed): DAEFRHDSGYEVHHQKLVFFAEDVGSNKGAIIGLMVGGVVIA
Experimental: Finally, in a multitarget perspective, the compounds were tested to evaluate their Aβ anti-aggregation properties.
As reported in a previously published protocol, 1,1,1,3,3,3-hexafluoro, 2-propanol pretreated Aβ42 samples (Bachem AG, Bubendorf, Switzerland) were solubilized with a CH3CN/0.3 mM Na2CO3/250 mM NaOH (48.4:48.4:3.2) mixture. Experiments were performed by incubating the peptide in 10 mM phosphate buffer (pH = 8.0) containing 10 mM NaCl, at 30 °C for 24 h (final Aβ concentration = 50 μM) with and without inhibitor (50 μM, Aβ/inhibitor = 1/1). Blanks containing the tested inhibitors were also prepared and tested. To quantify amyloid fibrils formation, the thioflavin T (ThT) fluorescence method was used. After incubation, samples were diluted to a final volume of 2.0 mL with 50 mM glycine-NaOH buffer (pH 8.5) containing 1.5 μM ThT. A 300 s-time scan of fluorescence intensity was carried out (λexc = 446 nm; λem = 490 nm, FP-6200 fluorometer, Jasco Europe), and values at plateau were averaged after subtracting the background fluorescence of 1.5 μM ThT solution. The fluorescence intensities were compared and the percent inhibition due to the presence of the inhibitor.

[2] = target: T3, human recombinant AChE (hAChE) (Homo sapiens, UniProt P22303); assay: Inhibition of human AChE, Ellman's method; format: biochemical; conditions: for IC50: human recombinant AChE; for inhibition at 40 µM: [I] = 40 µM, read-out: hAChE % Inhibition (±SEM)
T3 construct: purchased Sigma-Aldrich, Merck group, Milan, Italy
T3 sequence (P22303 32-614): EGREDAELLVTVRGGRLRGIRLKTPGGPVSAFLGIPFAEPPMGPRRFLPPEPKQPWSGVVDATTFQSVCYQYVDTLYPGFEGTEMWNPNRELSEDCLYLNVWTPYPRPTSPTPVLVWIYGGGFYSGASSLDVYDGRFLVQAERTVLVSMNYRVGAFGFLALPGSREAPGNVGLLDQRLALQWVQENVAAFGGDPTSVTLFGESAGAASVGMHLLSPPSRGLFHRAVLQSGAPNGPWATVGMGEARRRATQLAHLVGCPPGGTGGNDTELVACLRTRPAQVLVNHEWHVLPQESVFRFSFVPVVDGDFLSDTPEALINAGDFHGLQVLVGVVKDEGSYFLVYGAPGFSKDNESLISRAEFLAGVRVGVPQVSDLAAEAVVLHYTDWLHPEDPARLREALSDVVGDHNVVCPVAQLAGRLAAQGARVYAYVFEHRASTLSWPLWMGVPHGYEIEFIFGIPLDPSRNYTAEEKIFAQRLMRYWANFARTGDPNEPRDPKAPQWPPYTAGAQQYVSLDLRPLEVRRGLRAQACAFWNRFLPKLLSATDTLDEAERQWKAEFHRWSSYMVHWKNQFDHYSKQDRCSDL
Experimental: (§1) The capacity of 2–7 to inhibit human ChE activity was assessed using the Ellman’s method. Initial rate assays were performed at 37 °C with a V-530 double beam spectrophotometer (Jasco Corporation, Cremella (LC), Italy city, state/prov abbrev if USA/Canada, country). […] AChE stock solution was prepared by dissolving human recombinant AChE lyophilized powder (Sigma-Aldrich, Merck group, Milan, Italy) in 0.1 M phosphate buffer at pH 8.0 containing 0.1% Triton X-100. Stock solution of BuChE was prepared by diluting commercial stock solution of BuChE from human serum (Sigma) in an aqueous solution of gelatin (0.2%) in order to have a final activity comprised between 0.11–0.15 ΔAbs/min. Stock solutions of inhibitors (1–2 mM) were prepared in methanol and diluted in methanol. […] Incubation times were: 60 min for 2 and 90 min for 3 and 4 on hAChE assay, and 45 min for 2 and 60 min for 3 and 4 on hBuChE assay, as assessed on the preliminary determination of the carbamoylation rate. Blank solutions containing all components except the enzyme were prepared in order to account for the non-enzymatic hydrolysis of the substrate. The reaction rates obtained in the absence and presence of inhibitor were compared and the percent inhibition due to the presence of inhibitor was calculated. […] Two independent experiments were performed for the determination of each IC50 value or for the calculation of the % of inhibition where the IC50 value could not be determined because of low inhibitory activity.

[3] = target: T1, FAAH in rat brain membranes; assay: FAAH assay, [14C]-AEA hydrolysis in rat brain membranes
hAChE = target: T4, hAChE (Homo sapiens, UniProt P22303); assay: Stopped time assay of hAChE carbamoylation; format: biochemical; conditions: determined at IC50 value
T4 construct: purchased Sigma-Aldrich, Merck group, Milan, Italy
T4 sequence (P22303 32-614): as above
Experimental: Given these premises, we initially investigated the time-dependent ChEs inhibition by 2–4 by evaluating the time required to achieve a plateau in the inhibition plot.
A stopped time assay was performed in order to define the time required for enzyme carbamoylation. In detail, residual enzyme activity upon selected incubation times was assessed by following the same protocol described in section “Determination of the inhibitory potency towards human AChE and BuChE”. […] The mixture was incubated at 37 °C for given times (from 5 to 90 min) before the addition of the substrate (AChT or BChT, respectively) and the determination of residual enzyme activity by Ellman’s method. A parallel control, with no inhibitor, allowed to adjust activities measured at various time.

[4] = target: T5, BuChE from human serum (hBuChE) (Homo sapiens, UniProt P06276); assay: Inhibition of human BuChE, Ellman's method; format: biochemical; conditions: for IC50: BuChE from human serum
T5 construct: commercial stock solution of BuChE from human serum (Sigma); purchased Sigma; host or cells: human serum
T5 sequence (P06276 29-602): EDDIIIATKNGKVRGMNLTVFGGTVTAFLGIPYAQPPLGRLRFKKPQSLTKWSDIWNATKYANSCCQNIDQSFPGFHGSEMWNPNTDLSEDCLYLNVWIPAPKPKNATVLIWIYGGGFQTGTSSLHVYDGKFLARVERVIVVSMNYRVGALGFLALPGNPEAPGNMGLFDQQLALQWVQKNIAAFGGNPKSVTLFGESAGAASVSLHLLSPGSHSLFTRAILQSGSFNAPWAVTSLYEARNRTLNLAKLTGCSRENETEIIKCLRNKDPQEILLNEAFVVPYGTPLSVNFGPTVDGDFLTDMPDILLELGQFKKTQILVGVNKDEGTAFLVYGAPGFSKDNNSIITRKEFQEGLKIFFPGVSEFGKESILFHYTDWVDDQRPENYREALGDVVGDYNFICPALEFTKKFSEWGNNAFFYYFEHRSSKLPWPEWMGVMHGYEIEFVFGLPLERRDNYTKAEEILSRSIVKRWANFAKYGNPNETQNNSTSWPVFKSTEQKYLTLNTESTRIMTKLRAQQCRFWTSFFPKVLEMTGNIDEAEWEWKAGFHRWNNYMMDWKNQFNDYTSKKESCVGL
Experimental: as §1

[5] = target: T6, human recombinant CB1 receptor (Homo sapiens, UniProt P21554); assay: Competition binding assay with [3H]-CP-55,940 at CB1; conditions: for Ki: [3H]-CP55940 displacement, HEK-293 membranes, read-out: Ki on CB1 (m ± sd); for % Displacement at max tested on CB1 (m ± sd): max tested concentration 10 µM, [3H]-CP55940
T6 construct: purchased Perkin Elmer, Milan, Italy; host or cells: HEK-293
T6 sequence (P21554 whole entry): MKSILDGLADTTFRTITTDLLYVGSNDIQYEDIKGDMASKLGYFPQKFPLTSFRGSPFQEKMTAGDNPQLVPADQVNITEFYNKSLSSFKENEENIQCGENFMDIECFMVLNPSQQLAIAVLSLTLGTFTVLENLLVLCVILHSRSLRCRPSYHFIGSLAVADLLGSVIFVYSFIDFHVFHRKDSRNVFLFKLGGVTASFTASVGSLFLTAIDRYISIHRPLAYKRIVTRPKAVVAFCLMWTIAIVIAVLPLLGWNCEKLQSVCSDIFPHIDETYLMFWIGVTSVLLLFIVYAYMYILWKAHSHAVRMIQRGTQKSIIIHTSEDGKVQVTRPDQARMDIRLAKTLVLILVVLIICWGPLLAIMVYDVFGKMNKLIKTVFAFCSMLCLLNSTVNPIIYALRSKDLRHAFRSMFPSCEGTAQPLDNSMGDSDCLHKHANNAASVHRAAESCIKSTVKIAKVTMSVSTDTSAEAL
Experimental: (§2) Competition binding assay for CB1 and CB2 receptors was performed as previously reported. […] All compounds were tested following the procedure described by the manufacturer (Perkin Elmer, Milan, Italy).

[6] = target: T7, human recombinant CB2 receptor (Homo sapiens, UniProt P34972); assay: Competition binding assay with [3H]-CP-55,940 at CB2; conditions: for Ki: [3H]-CP55940 displacement, HEK-293 membranes, read-out: Ki on CB2 (m ± sd); for % Displacement at max tested on CB2 (m ± sd): max tested concentration 10 µM, [3H]-CP55940
T7 construct: purchased Perkin Elmer, Milan, Italy; host or cells: HEK-293
T7 sequence (P34972 whole entry): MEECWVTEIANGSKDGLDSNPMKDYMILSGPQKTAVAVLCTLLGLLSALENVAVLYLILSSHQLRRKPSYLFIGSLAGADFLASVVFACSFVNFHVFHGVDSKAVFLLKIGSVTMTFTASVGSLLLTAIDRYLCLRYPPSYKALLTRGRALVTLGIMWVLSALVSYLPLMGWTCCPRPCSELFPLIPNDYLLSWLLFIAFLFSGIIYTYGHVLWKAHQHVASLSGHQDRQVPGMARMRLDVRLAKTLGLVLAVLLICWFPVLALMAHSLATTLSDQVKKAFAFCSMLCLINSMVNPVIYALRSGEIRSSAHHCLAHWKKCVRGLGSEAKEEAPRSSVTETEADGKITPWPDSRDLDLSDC
Experimental: as §2

[7] = IC50 FAAH (m ± sd), rat brain membranes, AEA hydrolysis, without pre-incubation
[8] = IC50 FAAH with 20 min Pre-incubation, rat brain membranes, 20 min pre-incubation at 37 °C
[9] = incubation time 60 min, read-out: IC50 hBuChE (±SEM)
[10] = incubation 20 min, read-out: hBuChE IC50 (±SEM)

Structure (SMILES) | inhibition at 50 µM (Aβ42 self-aggregation) | IC50 [3, 7] | IC50 [3, 8] | inhibition at 40 µM ([2]; incubation 20 min) | IC50 [3] | Ki [5] | % Displacement at max tested on CB1 (m ± sd) [5] | IC50 [4, 10] | Ki [6] | % Displacement at max tested on CB2 (m ± sd) [6] | other results
CCCCCCCNC(=O)Oc1cccc(CN(C)CCCOc2ccc3ccc(=O)oc3c2)c1 [Compound 1] |  |  |  |  |  |  |  |  |  |  | IC50 [1]: 0.029 ± 0.001 µM
CN(CCCOc1ccc2ccc(=O)oc2c1)Cc1cccc(OC(=O)NC2CCCC2)c1 [Compound 2, 3-((Methyl(3-((2-oxo-2H-chromen-7-yl)oxy)propyl)amino)methyl)phenyl cyclopentylcarbamate] | 22.9 ± 1.3% | 6.09 ± 1.55 µM | 2.53 ± 0.55 µM |  |  |  |  |  |  |  | IC50 ([2]; incubation time 60 min, read-out: IC50 hAChE (±SEM)): 0.521 ± 0.014 µM; pseudo-first order kobs of hAChE carbamoylation (hAChE): 0.038 min⁻¹; IC50 ([4]; incubation time 45 min, read-out: IC50 hBuChE (±SEM)): 0.00842 ± 0.00013 µM
CN(CCCOc1ccc2ccc(=O)oc2c1)Cc1cccc(OC(=O)NC2CCCCC2)c1 [Compound 3, 3-((Methyl(3-((2-oxo-2H-chromen-7-yl)oxy)propyl)amino)methyl)phenyl cyclohexylcarbamate] | 18.9 ± 2.1% | 2.55 ± 0.33 µM | 1.33 ± 0.28 µM |  |  |  |  |  |  |  | IC50 ([2]; incubation time 90 min, read-out: IC50 hAChE (±SEM)): 0.104 ± 0.021 µM; IC50 [4, 9]: 0.0349 ± 0.0042 µM
CN(CCCOc1ccc2ccc(=O)oc2c1)Cc1cccc(OC(=O)Nc2ccc3ccccc3c2)c1 [Compound 4, 3-((Methyl(3-((2-oxo-2H-chromen-7-yl)oxy)propyl)amino)methyl)phenyl naphthalen-2-ylcarbamate] | 13.9 ± 3.8% | 1.58 ± 0.26 µM | 0.63 ± 0.08 µM |  |  |  |  |  |  |  | IC50 [4, 9]: 0.002 ± 0.0002 µM; difference in IC50 values hAChE vs hBuChE (selectivity) ([4]; hBuChE over hAChE): 100 fold
CCCCCCCNC(=O)COc1cccc(CN(C)CCCOc2ccc3ccc(=O)oc3c2)c1 [Compound 5, N-Heptyl-2-(3-((methyl(3-((2-oxo-2H-chromen-7-yl)oxy)propyl)amino)methyl)phenoxy)acetamide] |  |  |  | 13.6 ± 5.1% | > 1000 µM | > 10 µM | 10 (35.57 ± 0.43) % | 182 ± 28 µM | > 10 µM | 10 (41.41 ± 0.87) % | 
CN(CCCOc1ccc2ccc(=O)oc2c1)Cc1cccc(OCC(=O)NC2CCCC2)c1 [Compound 6, N-Cyclopentyl-2-(3-((methyl(3-((2-oxo-2H-chromen-7yl)oxy)propyl)amino)methyl)phenoxy)-acetamide] | 20.3 ± 1.9% |  |  | 41.7 ± 0.5% | > 1000 µM | > 10 µM | 10 (35.75 ± 0.65) % | 11.6 ± 0.8 µM | > 10 µM | 10 (48.33 ± 1.73) % | IC50 ([2]; incubation 20 min, read-out: IC50 hAChE): 59.4 µM
CN(CCCOc1ccc2ccc(=O)oc2c1)Cc1cccc(OCC(=O)NC2CCCCC2)c1 [Compound 7, N-Cyclohexyl-2-(3-((methyl(3-((2-oxo-2H-chromen-7-yl)oxy)propyl)amino)methyl)phenoxy)-acetamide] | 13.5 ± 5% |  |  | 34 ± 3.2% | > 1000 µM | > 10 µM | 10 (39.62 ± 10.48) % | 12.8 ± 2.1 µM | > 10 µM | 10 (14.3 ±3.83) % | 
